Laboratory results from patent publication US20250338846A1, “COMPOSITIONS HAVING PESTICIDAL UTILITY AND PROCESSES RELATED THERETO” (CORTEVA AGRISCIENCE, LLC, priority 2022, published 2025).

Columns and labels:
Assay type in all cases: in vivo
[1] = system: Sweet Potato Whitefly (Bemisia tabaci, BEMITA); assay: Bioassay 2: Sweet Potato Whitefly, spray on cotton seedlings at crawler emergence, nymphs counted 7-9 days after treatment; details: AI alone 0.1 (10-5) % w/v
Summary of the method: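 Cotton seedlings pruned to one true leaf were colonized by adult B. tabaci for 24 h egg-laying, then sprayed once >25% crawler emergence was underway; solutions 0.001% to 0.00000001% (w/v) in acetone/water with 0.025% Tween 20. Held ~25° C; live 2-3 instar nymphs counted 7-9 days later, Abbott-corrected % control.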

[2] = system: Western Flower Thrips (Frankliniella occidentalis, FRANOC); assay: Bioassay 3: Western Flower Thrips, cotton leaf disc dip, live WFT counted 3 days after treatment; details: Frankliniella occidentalis, foliar, 72 h; AI alone 0.0003125 % w/v
Procedure: Stock solutions of Formula One and various active ingredients were prepared initially at a concentration of 8 mg/ml for Formula One and 1 mg/mL for the active ingredients, respectively, using acetone as a diluent. Stock solutions were prepared with Formula One as well as for each of the active ingredients individually. Test solutions were prepared from the stock solutions. Test solutions were prepared containing Formula One, the individual active ingredients, and mixtures of Formula One with each of the active ingredients. The test solution for Formula One was prepared by adding 500 μL of the stock solution to a 25 mL glass vial, then adding 500 μL of acetone, followed by the addition of 9 mL water with 0.025% Tween®) 20 to create a 0.04% (w/v) solution. The test solutions of the individual active ingredients were prepared by adding 500 μL of stock solution to a 25 mL glass vial, then adding 500 μL of acetone, followed by the addition of 9 mL water with 0.025% Tween®) 20 to create a 0.005% (w/v) solution. The test solutions containing mixtures of Formula One and the individual active ingredients were prepared by adding 500 μL of the active ingredient stock solution to a 25 mL glass vial, followed by 500 μL of the Formula One stock solution, then by the addition of 9 mL water with 0.025% Tween®) 20 to create a test solution containing 0.04% (w/v) Formula One and 0.005% (w/v) of the active ingredient. Each test solution was serially diluted to create desired doses of test solutions (0.005% (w/v), 0.00125% (w/v), 0.0003125% (w/v), 0.000078% (w/v), and 0.0000195% (w/v)). In test solutions containing mixtures of Formula One and the active ingredients, the active ingredients were diluted as described above, but the Concentration of Formula One was held constant (0.04% (w/v)).
The test solutions were tested against WFT using the following procedure: Leaf discs (2.7 cm in diameter) were cut from the true leaves of cotton plants. Leaf discs were dipped into the test solutions and shaken to ensure complete coverage of the leaf disc and then placed in Millipore®) PetriSlides containing a filter paper disc. Treated leaf discs were air dried for approximately 1 hour. Each leaf disc was infested with 5 WFT (9-10-day old nymphs) by placement on each leaf disc, and the PetriSlides were capped to prevent escape. Each treatment was replicated three times and the test treatments were held at approximately 26° C. and ambient relative humidity (RH) prior to grading. Reference discs (solvent check) were treated with the diluent only. Evaluation was conducted by counting the number of live WFT under magnification 3 days after treatment. Percent control was measured using Abbott's correction formula (W. S. Abbott, J. Econ. Entomol. 18 (1925), pp. 265-267) as follows:
where X=No. of live nymphs on solvent check leaf discs and Y=No. of live nymphs on treated leaf discs. In Table B3 the “Expected % Control” was calculated using the method described in Colby S. R., Weeds, 1967, 15, 20-22. Bioassay 4: Western Tarnished Plant Bug (Lygus hesperus, LYGUHE) (“WTPB”).

[3] = system: Diamondback Moth (Plutella xylostella, PLUTMA); assay: Bioassay 6: Diamondback Moth, artificial lepidopteran diet, live larvae after 5 days; details: DBM; AI alone 0.04 % w/v
Procedure: where X=No. of live nymphs on solvent check and Y=No. of live nymphs on treated bean segments. In Table B5 the “Expected % Control” was calculated using the method described in Colby S. R., Weeds, 1967, 15, 20-22. Bioassay 6: Beet Armyworm (Spodoptera exigua, LAPHEG) (BAW), and Diamondback Moth (Plutella xylostella, PLUTMA) (DBM).
(§1) Stock solutions were prepared with Formula One as well as for each of the active ingredients individually. Test solutions were prepared from the stock solutions. Test solutions were prepared containing Formula One, the individual active ingredients, and mixtures of Formula One with each of the active ingredients. The test solution for Formula One was prepared by adding 500 μL of the stock solution to a 25 mL glass vial, then adding 500 μL of a 9:1 mixture of acetone: water. The individual active ingredients were prepared by adding 500 μL of stock solution to a 25 mL glass vial, then adding 500 μL of a 9:1 mixture of acetone: water. The test solutions containing mixtures of Formula One and the individual active ingredients were prepared by adding 500 μL of the active ingredient stock solution to a 25 mL glass vial, followed by 500 μL of the Formula One stock solution, creating a test solution containing 4000 ppm Formula One and 0.4% (w/v) of the active ingredient. Each test solution was serially diluted to create desired doses of test solutions (0.4% (w/v), 0.04% (w/v), 0.004% (w/v), 0.0004% (w/v), 0.00004% (w/v), and 0.000004% (w/v)). In test solutions containing mixtures of Formula One and the active ingredients, the active ingredients were diluted as described above, but the Concentration of Formula One was held constant (0.4% (w/v)). The highest dose test solution (0.4% (w/v)) was discarded, leaving 5 test solution concentrations used in the test.
The test solutions were tested against BAW and DBM using the following procedure: An artificial lepidopteran diet (Multispecies Lepidopteran Diet, Southland Products) was distributed in 128-cell bioassay trays (Frontier Agricultural Sciences™). 50 μL of test solution was pipetted into a cell in the bioassay tray. (The test solution doses of 0.04% (w/v), 0.004% (w/v), 0.0004% (w/v), 0.00004% (w/v), and 0.000004% (w/v) translated to concentrations of 5, 0.5, 0.05, 0.005, and 0.0005 ug/cm^2 on the diet, respectively.) A reference treatment (solvent check) was treated with the diluent only. […] After 5 days, the number of live larvae were recorded from each cell and percent control was measured using Abbott's correction formula (W. S. Abbott, J. Econ. Entomol. 18 (1925), pp. 265-267) as follows:
where X=No. of live larvae on solvent check and Y=No. of live larvae on treated diet. In Table B6 the “Expected % Control” was calculated using the method described in Colby S. R., Weeds, 1967, 15, 20-22. […]

[4] = system: Sweet Potato Whitefly (Bemisia tabaci, BEMITA); assay: Bioassay 8: Sweet Potato Whitefly, spray on cotton seedlings at crawler emergence, nymphs counted 7-9 days after treatment
Procedure: (§2) where X=No. of live aphids on solvent check plants and Y=No. of live aphids on treated plants. In Table B1 the “Expected % Control” was calculated using the method described in Colby S. R., Weeds, 1967, 15, 20-22. Bioassay 8: Sweet Potato Whitefly (Bemisia tabaci, BEMITA) (“SPW”).
Stock solutions were prepared with Formula One as well as for each of the active ingredients individually. Test solutions were prepared from the stock solutions. Test solutions were prepared containing Formula One, the individual active ingredients, and mixtures of Formula One with each of the active ingredients. The test solutions for Formula One and the individual active ingredients were prepared by adding 500 μL of stock solution to a 25 mL glass vial, then adding 500 μL of acetone, followed by the addition of 9 mL water with 0.025% Tween®) 20 to create a 0.001% (w/v) solution. The test solutions containing mixtures of Formula One and the individual active ingredients were prepared by adding 500 μL of the active ingredient stock solution to a 25 mL glass vial, followed by 500 μL of the Formula One stock solution, then by the addition of 9 mL water with 0.025% Tween®) 20 to create a test solution containing 0.001% (w/v) Formula One and 0.001% (w/v) of the active ingredient. Each test solution was serially diluted to create desired doses of test solutions (0.001% (w/v), 0.0001% (w/v), 0.00001% (w/v), 0.000001% (w/v), 0.0000001% (w/v), […] and 0.00000001% (w/v)).
The test solutions were tested against SPW using the following procedure: Cotton seedlings grown in 3-inch pots, pruned so that only one true leaf remained, were used as test substrate. Adult B. tabaci were allowed to colonize the cotton plants and lay eggs for 24 hours after which all adults were removed from the plants using compressed air. Plants were monitored for egg development and, when crawler emergence was underway (>25% emergence based on visual examination using a microscope), the plants were sprayed using the test solutions and methods described above for green peach aphids (GPA). Treated plants were held in a holding room at approximately 25° C. and ambient relative humidity (RH) prior to grading. Evaluation was conducted by counting the number of developed 2-3 instar nymphs per plant under a microscope 7-9 days after treatment. Percent control was measured using Abbott's correction formula (W. S. Abbott, J. Econ. Entomol. 18 (1925), pp. 265-267) as follows:
(§3) where X=No. of live nymphs on solvent check plants and Y=No. of live nymphs on treated plants. In Table B2 the “Expected % Control” was calculated using the method described in Colby S. R., Weeds, 1967, 15, 20-22. Bioassay 9: Diamondback Moth (Plutella xylostella, PLUTMA) (DBM).

[5] = system: Cotton Aphid (Aphis gossypii, APHIGO); assay: Bioassay 7: Cotton Aphid, foliar spray on infested cotton seedlings, live aphids counted three days after treatment
Procedure: where X=No. of live larvae on solvent check and Y=No. of live larvae on treated diet. In Table B6 the “Expected % Control” was calculated using the method described in Colby S. R., Weeds, 1967, 15, 20-22. Bioassay 7: Cotton Aphid (Aphis gossypii, APHIGO) (“CA”).
Stock solutions of Formula One and one or more of the active ingredients were prepared at concentrations of 1 mg/mL using a 1:1 mixture of acetone: methanol as a diluent. The stock solutions were prepared with Formula One as well as for each of the active ingredients individually. Test solutions were prepared from the stock solutions. Test solutions were prepared containing Formula One, the individual active ingredients, and mixtures of Formula One with each of the active ingredients. The test solutions for Formula One and the individual active ingredients were prepared by adding 1.5 mL of stock solution to a 30 mL glass vial, then adding 1.5 mL of 1:1 acetone: methanol solvent, followed by the addition of 27 mL water with 0.025% Tween® 20 to create a […]. Each test solution was serially diluted to create desired doses of test solutions ranging from 0.000001 to 0.0025% (w/v). The test solutions were tested against CA using the following procedure: cotton seedlings were grown in 3-inch pots with one true leaf (2-5 cm in diameter) were used as test substrate. The seedlings were infested with 20-50 CA (wingless adult and nymph stages) one day prior to chemical application. Four pots with individual seedlings were used for each treatment. A hand-held aspirator-type sprayer was used for spraying a solution to both sides of […] leaves until runoff. Reference plants (solvent check) were sprayed with the diluent only (0.025% Tween® 20 and 10% acetone:methanol (1:1) in water). Treated plants were held in a holding room for three days at approximately 25° C. and ambient relative humidity (RH about 20% to about 45%) prior to grading. Evaluation was conducted by counting the number of live aphids per plant under a microscope three days after treatment. Percent control was measured using Abbott's correction formula (W. S. Abbott, J. Econ. Entomol. 18 (1925), pp. 265-267) as follows:
as §2

[6] = system: Diamondback Moth (Plutella xylostella, PLUTMA); assay: Bioassay 9: Diamondback Moth, leaves of track-sprayed cabbage plants, mortality and feeding damage scored; details: Feeding damage control; AI alone 40 (10^-5) Wt %
[7] = system: Diamondback Moth (Plutella xylostella, PLUTMA); assay: as above; details: AI alone 20 (10^-5) Wt %
Procedure: as §3, §1
Cabbage seedlings, grown in 3-inch pots with 2-3 small (3-5 centimeter (cm)) true leaves, were used as test substrate. Cabbage plants were sprayed with desired concentrations of Formula One and active ingredients or their mixtures using a track Sprayer. Reference plants (solvent check) were sprayed with diluent only (0.025% Tween® 20 and 10% acetone:methanol (1:1) in water). The sprayed cabbage plants were allowed to dry for 1 hour, after which leaves from each treatment were placed in a cell of a plastic tray. One leaf per cell and 8 replicates for each cell. The tested doses ranged between 0.000001% (w/v) to 0.0002% (w/v). One 2nd instar DBM larvae were placed in each cell of the tray and allowed to feed on the cabbage foliage for […] after which the mortality and feeding damage were scored. Test trays were held at approximately 26° C. and ambient relative humidity (RH) prior to grading. The number of live larvae were recorded from each cell and percent control was measured using Abbott's correction formula (W. S. Abbott, J. Econ. Entomol. 18 (1925), pp. 265-267) as follows:
where X=No. of live larvae on solvent check and Y=No. of live larvae on treated diet. In Table B6 the “Expected % Control” was calculated using the method described in Colby S. R., Weeds, 1967, 15, 20-22.

| Compound | Average % Control AI [1] [%] | pest or weed control at 0.0003125 % strength [2] [%] | Average % Control AI [3] [%] | Average % Control A1 ([4]; AI alone 0.1 (10^-5) Wt %) [%] | Average % Control A1 ([4]; AI alone 0.8 (10^-5) Wt %) [%] | Average % Control A1 ([5]; AI alone 0.2 (10^-5) Wt %) [%] | Average % Control A1 ([5]; AI alone 7 (10^-5) Wt %) [%] | Average % Control A1 ([5]; AI alone 12 (10^-5) Wt %) [%] | Average % Control AI [6] [%] | Average % Control AI ([7]; Acute mortality) [%] | Average % Control AI ([7]; Feeding damage control) [%] |
| --- | --- | --- | --- | --- | --- | --- | --- | --- | --- | --- | --- |
| CNC(=O)O/N=C(\SC)C(=O)N(C)C [Oxamyl] | 0 | 0 | 0 | – | – | – | – | – | – | – | – |
| Spidoximat | – | – | – | 37.90 | 62.26 | 13.25 | 32.54 | 35.09 | 37.98 | 0.00 | 17.83 |
